Test results: article PMC12645437, “Orthogonal IMiD-Degron Pairs Induce Selective Protein Degradation in Cells” (ACS Chemical Biology, 2025)
“And” between values parts separate entries of the source, which are not always exact repeats. Equal values may be shown once.

Tests used:
[1] = molecular target: HEIP mutant ZF degron fused to EGFP (Homo sapiens, UniProt Q96SW2+Q9UKT9, N149E/Q147H/Q150I/S154P); assay: Ratiometric EGFP:mCherry flow cytometry degradation assay, 18 h
[2] = molecular target: AEVK mutant ZF degron fused to EGFP (Homo sapiens, UniProt Q96SW2+Q9UKT9, N149E/Q147A/Q150V/S154K); assay: as above
Chain of AEVK mutant ZF degron fused to EGFP (Q9UKT9 130-189 Q147A/N149E/Q150V/S154K): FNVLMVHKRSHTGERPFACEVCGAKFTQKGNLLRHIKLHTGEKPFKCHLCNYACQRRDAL
Chain of AEVK mutant ZF degron fused to EGFP (Q96SW2 whole entry, the tested form may be a part): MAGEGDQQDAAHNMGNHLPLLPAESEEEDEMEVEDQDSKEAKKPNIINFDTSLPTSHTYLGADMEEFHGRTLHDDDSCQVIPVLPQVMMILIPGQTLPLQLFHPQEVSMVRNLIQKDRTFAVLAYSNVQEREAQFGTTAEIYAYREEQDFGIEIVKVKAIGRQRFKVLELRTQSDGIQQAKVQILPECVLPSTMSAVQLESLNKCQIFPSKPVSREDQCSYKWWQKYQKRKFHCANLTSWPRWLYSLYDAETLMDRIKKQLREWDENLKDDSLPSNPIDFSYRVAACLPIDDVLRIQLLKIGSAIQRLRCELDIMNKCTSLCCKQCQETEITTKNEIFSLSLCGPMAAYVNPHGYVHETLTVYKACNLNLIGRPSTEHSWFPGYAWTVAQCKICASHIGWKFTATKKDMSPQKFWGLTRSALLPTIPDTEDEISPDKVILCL
Chain of AEVK mutant ZF degron fused to EGFP (Q16531 whole entry partner, the tested form may be a part): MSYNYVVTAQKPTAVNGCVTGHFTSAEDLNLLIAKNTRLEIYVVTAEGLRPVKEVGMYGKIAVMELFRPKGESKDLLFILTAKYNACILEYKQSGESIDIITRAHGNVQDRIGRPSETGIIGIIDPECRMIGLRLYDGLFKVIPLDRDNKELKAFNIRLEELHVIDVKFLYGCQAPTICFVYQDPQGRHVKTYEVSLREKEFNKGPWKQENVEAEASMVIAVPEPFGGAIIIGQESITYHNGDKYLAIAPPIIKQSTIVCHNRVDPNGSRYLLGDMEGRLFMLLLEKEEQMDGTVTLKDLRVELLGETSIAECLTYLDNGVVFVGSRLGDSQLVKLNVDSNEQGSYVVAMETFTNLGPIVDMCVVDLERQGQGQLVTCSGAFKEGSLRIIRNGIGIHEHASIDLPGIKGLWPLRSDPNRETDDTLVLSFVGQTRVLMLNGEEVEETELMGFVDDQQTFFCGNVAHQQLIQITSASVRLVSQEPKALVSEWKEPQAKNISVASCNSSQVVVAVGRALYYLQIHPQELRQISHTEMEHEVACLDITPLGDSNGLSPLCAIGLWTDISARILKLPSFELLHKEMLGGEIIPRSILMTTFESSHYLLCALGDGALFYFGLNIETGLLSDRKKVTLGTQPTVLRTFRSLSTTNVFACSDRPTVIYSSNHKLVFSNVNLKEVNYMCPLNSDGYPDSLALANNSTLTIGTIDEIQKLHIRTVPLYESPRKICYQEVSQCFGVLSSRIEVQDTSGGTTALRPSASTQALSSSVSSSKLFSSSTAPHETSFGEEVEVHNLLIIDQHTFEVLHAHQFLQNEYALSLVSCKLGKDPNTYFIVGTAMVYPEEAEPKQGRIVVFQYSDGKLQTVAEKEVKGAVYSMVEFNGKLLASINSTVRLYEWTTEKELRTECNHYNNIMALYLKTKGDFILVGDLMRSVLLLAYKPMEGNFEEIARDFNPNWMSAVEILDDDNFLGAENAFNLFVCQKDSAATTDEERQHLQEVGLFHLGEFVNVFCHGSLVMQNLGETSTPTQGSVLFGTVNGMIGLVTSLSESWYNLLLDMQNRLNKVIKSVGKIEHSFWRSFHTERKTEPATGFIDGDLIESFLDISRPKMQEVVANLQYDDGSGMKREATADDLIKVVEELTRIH

endogenous GSPT1 = molecular target: T1, endogenous GSPT1 (Homo sapiens, UniProt P15170); assay: Western blot for GSPT1 in WEIS-EGFP Jurkat cells; format: cell-based; settings: Jurkat transduced with EGFP-WEIS, 18 h
T1 construct: endogenous in cells; host or cells: Jurkat transduced with WEIS-EGFP
T1 sequence (P15170 whole entry): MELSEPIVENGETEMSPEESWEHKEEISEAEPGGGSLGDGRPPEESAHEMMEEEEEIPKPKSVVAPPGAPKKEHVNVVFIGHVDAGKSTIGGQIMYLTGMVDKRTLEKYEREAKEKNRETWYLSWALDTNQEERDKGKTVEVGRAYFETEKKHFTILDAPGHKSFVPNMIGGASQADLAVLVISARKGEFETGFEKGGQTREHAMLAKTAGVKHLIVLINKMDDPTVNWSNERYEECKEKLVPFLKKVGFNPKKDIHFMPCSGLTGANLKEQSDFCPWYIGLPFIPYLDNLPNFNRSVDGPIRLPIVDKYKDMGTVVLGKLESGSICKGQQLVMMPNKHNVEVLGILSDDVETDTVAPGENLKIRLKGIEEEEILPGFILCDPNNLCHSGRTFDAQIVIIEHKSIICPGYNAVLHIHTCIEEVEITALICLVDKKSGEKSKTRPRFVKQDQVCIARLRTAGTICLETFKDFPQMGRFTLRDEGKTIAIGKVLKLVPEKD

[3] = molecular target: T2, WEIS-EGFP in 3T3 mouse cells (UniProt Q8C7D2+Q9UKT9, N149E/Q147W/Q150I); assay: EGFP/mCherry flow cytometry degradation assay in 3T3 cells; format: cell-based; settings: 18 h; compared to human cells
T2 construct: IKZF3 130aa-142aa 170-189aa fused to EGFP; EGFP (fusion partner, via a linker); expressed in transfected cells; host or cells: 3T3 mouse cells, lentivirally transduced with WEIS-EGFP-IRES-mCherry (Artichoke-derived, Addgene #73320)
T2 sequence (Q9UKT9 130-189 Q147W/N149E/Q150I): as the sequence (Q9UKT9 130-189 Q147A/N149E/Q150V/S154K) above, with A18W, V21I, K25S counted along it
T2 sequence (Q8C7D2 whole entry, the tested form may be a part): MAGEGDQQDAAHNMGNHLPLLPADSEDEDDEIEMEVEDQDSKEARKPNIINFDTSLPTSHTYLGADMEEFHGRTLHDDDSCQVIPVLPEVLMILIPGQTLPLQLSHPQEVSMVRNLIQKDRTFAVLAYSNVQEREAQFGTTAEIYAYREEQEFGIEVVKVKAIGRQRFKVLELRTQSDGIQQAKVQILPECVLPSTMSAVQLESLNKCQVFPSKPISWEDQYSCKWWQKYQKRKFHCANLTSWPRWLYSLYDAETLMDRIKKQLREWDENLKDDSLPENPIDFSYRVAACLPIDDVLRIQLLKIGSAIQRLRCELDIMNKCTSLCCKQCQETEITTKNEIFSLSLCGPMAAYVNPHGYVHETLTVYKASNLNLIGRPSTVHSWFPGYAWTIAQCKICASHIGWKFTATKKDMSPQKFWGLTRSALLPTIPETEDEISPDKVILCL
T2 sequence (Q3U1J4 whole entry partner, the tested form may be a part): as the sequence (Q16531 whole entry partner, the tested form may be a part) above, with N418G, A495G, T745S, T1020A counted along it
Protocol: It is also noteworthy that this system is not yet optimized for use in mouse cells, as mouse cereblon contains a key V388I mutation that prevents IMiD-induced recruitment of ZF neosubstrates. […] We anticipate that mutations could be introduced to this degron to make it mouse-compatible for future in vivo studies.
Figure S24. Dose response curve for 3T3 mouse cells lentivirally transduced with WEIS-EGFP-
IRES-mCherry incubated with a concentration curve of compound 23 (1pM – 10 μM) for 18 h and
analyzed by flow cytometry.
(1 picture or pasted object on this page, not shown here)

HA-NanoLuc-WEIS = molecular target: T3, HA-NanoLuc-WEIS (Homo sapiens, UniProt Q96SW2+Q9UKT9, N149E/Q147W/Q150I); assay: HA antibody immunoblotting in HEK293T cells; format: cell-based; settings: 18 h, Western blot
T3 construct: pLVX-Sprout-IKZF3 130-189aa Q147W N149E Q150I (WEIS); expressed in transfected cells; host or cells: HEK293T, lentiviral transduction, puromycin-selected
T3 sequence (Q9UKT9 130-189 Q147W/N149E/Q150I): as the sequence (Q9UKT9 130-189 Q147A/N149E/Q150V/S154K) above, with A18W, V21I, K25S counted along it
T3 sequence (Q96SW2 whole entry): as the sequence (Q96SW2 whole entry, the tested form may be a part) above
T3 sequence (Q16531 whole entry partner): as the sequence (Q16531 whole entry partner, the tested form may be a part) above

Jurkat cells = assay: Compound cellular stability HPLC assay; format: in vitro ADME, human; settings: 25 μM
Protocol: We hypothesized that the time-dependent variation in DC50 values for compound 23 might result from instability in the cellular environment or export from the cells, leading to a lower cellular concentration after the 24 h period. To assess its cellular stability, we incubated Jurkat cells with 25 μM of compound 23 and analyzed how much compound was recovered from the cells after 0.5, 6, and 24 h (Figure S21) using HPLC analysis. […] The data also indicate that compound 23 is being metabolized, transported out of the cells, or both, over a 24 h period, explaining the increase in DC50 value by this time point (Figure G,H).
Figure S21. Assessing crude cellular stability of compound in 23 in mammalian cells using HPLC.
Jurkat cells were incubated with 25 µM of compound 23 for 0.5 h, 6 h, or 24 h. Cells were washed
with PBS and lysed with MeOH, clarified, and analyzed by HPLC. Compound 23 presence in the
lysate was assessed using HPLC at a UV/Vis absorbance of 190 nm. After 0.5 h we observed 130
incubating at rt for 3 minutes, then reading using an EnVision multimode plate reader
(PerkinElmer). The data have been expressed as % of DMSO control. Three biological repeats
were carried out for this assay, with each biological replicate plate comprising three replicate
Compound Cellular Stability HPLC Assay
Analytical HPLC assay to identify compound 23 in mammalian cell lysate. Jurkat cells were
cultured as described previously and seeded at a density of 2.5 × 10^5 cells per well in a 6-well
plate. Cells were treated with 25 µM of compound 23 or DMSO, keeping the final concentration
either 0.5 h, 6 h, or 24 h. Cells were then pelleted, supernatant removed, and cells were washed
twice with 1 mL of PBS, centrifuging each time at 6,500 rpm on a tabletop centrifuge to avoid
prematurely lysing the cells. PBS was then removed, and cells were lysed with 100 µL of HPLC- […]
0.1% formic acid. […] Samples were read using a Shimadzu system […]
processed using LabSolutions (Version 5.117). Sample components were measured using the UV
absorbance at 190 nm and 254 nm. The reported analysis is the UV absorbance at 190 nm. […]

[4] = molecular target: WEIS mutant ZF degron fused to EGFP (Homo sapiens, UniProt Q96SW2+Q9UKT9, N149E/Q147W/Q150I); assay: Ratiometric EGFP:mCherry flow cytometry degradation assay, 18 h
Chain of WEIS mutant ZF degron fused to EGFP (Q9UKT9 130-189 Q147W/N149E/Q150I): as the sequence (Q9UKT9 130-189 Q147A/N149E/Q150V/S154K) above, with A18W, V21I, K25S counted along it
Chain of WEIS mutant ZF degron fused to EGFP (Q96SW2 whole entry, the tested form may be a part): as the sequence (Q96SW2 whole entry, the tested form may be a part) above
Chain of WEIS mutant ZF degron fused to EGFP (Q16531 whole entry partner, the tested form may be a part): as the sequence (Q16531 whole entry partner, the tested form may be a part) above

[5] = molecular target: WNIQ mutant ZF degron fused to EGFP (Homo sapiens, UniProt Q96SW2+Q9UKT9, Q147W/Q150I/S154Q); assay: as above
Chain of WNIQ mutant ZF degron fused to EGFP (Q9UKT9 130-189 Q147W/Q150I/S154Q): as the sequence (Q9UKT9 130-189 Q147A/N149E/Q150V/S154K) above, with A18W, E20N, V21I, K25Q counted along it
Chain of WNIQ mutant ZF degron fused to EGFP (Q96SW2 whole entry, the tested form may be a part): as the sequence (Q96SW2 whole entry, the tested form may be a part) above
Chain of WNIQ mutant ZF degron fused to EGFP (Q16531 whole entry partner, the tested form may be a part): as the sequence (Q16531 whole entry partner, the tested form may be a part) above

[6] = molecular target: T4, WEIS-EGFP degron in Jurkat cells (Homo sapiens, UniProt Q96SW2+Q9UKT9, N149E/Q147W/Q150I); assay: GFP degradation flow cytometry assay with proteasome inhibitor carfilzomib; format: cell-based; settings: carfilzomib (1 μM) pre-incubation; 1-24 h
T4 construct: pLVX-Sprout-IKZF3 130-189aa Q147W N149E Q150I (WEIS); expressed in transfected cells
T4 sequence (Q9UKT9 130-189 Q147W/N149E/Q150I): as the sequence (Q9UKT9 130-189 Q147A/N149E/Q150V/S154K) above, with A18W, V21I, K25S counted along it
T4 sequence (Q96SW2 whole entry): as the sequence (Q96SW2 whole entry, the tested form may be a part) above
T4 sequence (Q16531 whole entry partner): as the sequence (Q16531 whole entry partner, the tested form may be a part) above

Chain of HEIP mutant ZF degron fused to EGFP (Q9UKT9 130-189 Q147H/N149E/Q150I/S154P): as the sequence (Q9UKT9 130-189 Q147A/N149E/Q150V/S154K) above, with A18H, V21I, K25P counted along it
Chain of HEIP mutant ZF degron fused to EGFP (Q96SW2 whole entry, the tested form may be a part): as the sequence (Q96SW2 whole entry, the tested form may be a part) above
Chain of HEIP mutant ZF degron fused to EGFP (Q16531 whole entry partner, the tested form may be a part): as the sequence (Q16531 whole entry partner, the tested form may be a part) above

SMILES	Selectivity (WT/mutant) ([1]; DC50(WT)/DC50(HEIP))	DC50 ([1]; HEIP, Jurkat, 18 h) [nM]	pDC50 ([1]; HEIP, Jurkat, 18 h)	DC50 ([2]; AEVK, Jurkat, 18 h) [nM]	pDC50 ([2]; AEVK, Jurkat, 18 h)	Selectivity (WT/mutant) ([2]; DC50(WT)/DC50(AEVK))	degradation of endogenous GSPT1 (Western blot) (endogenous GSPT1)	WEIS-EGFP degradation in 3T3 mouse cells [3]	D max (HA-NanoLuc-WEIS) [%]	DC50 (HA-NanoLuc-WEIS) [nM]	compound recovered from cells (HPLC) (Jurkat cells; after 0.5 h) [nM]	compound recovered from cells (HPLC) (Jurkat cells; after 6 h) [nM]	compound recovered from cells (HPLC) (Jurkat cells; after 24 h)	Selectivity (WT/mutant) ([4]; DC50(WT)/DC50(WEIS))	DC50 ([4]; WEIS, Jurkat, 18 h) [nM]	pDC50 ([4]; WEIS, Jurkat, 18 h)	Selectivity (WT/mutant) ([5]; DC50(WT)/DC50(WNIQ))	DC50 ([5]; WNIQ, Jurkat, 18 h) [nM]	pDC50 ([5]; WNIQ, Jurkat, 18 h)	WEIS-EGFP degradation with carfilzomib [6]
CC(C)(C)c1ccc2c(c1)C(=O)N(C1CCC(=O)NC1=O)C2=O (centres unmarked) [Compound 19]	25 and 25.1	30.2	7.52	27.5	7.56	28	–	–	–	–	–	–	–	–	–	–	–	–	–	–
CN1CCN(c2ccc3c(c2)C(=O)N(C2CCC(=O)NC2=O)C3=O)CC1 (centres unmarked) [Compound 23]	–	–	–	–	–	–	showed no degradation	modest levels of WEIS-EGFP degradation	89	47.8	130	30	almost no compound remaining	35	18.2	7.74	11.8	53.7	7.27	rescued
